Measurements as given in patent publication US11609178B2, “Apparatus for analysing a liquid sample comprising particles” (UNIVERSITY COURT OF THE UNIVERSITY OF ST ANDREWS, priority 2018, dated 2023).

Assays:
Format in all cases: cell-based
Klebsiella = test: Bacterial growth over time in urine samples with different antibiotics (FIG. 10); conditions: urine samples containing Klebsiella; growth curve compared with control line
Method: As a first stage a biological sample containing urine is obtained. A spinning process is applied to the sample and the sample is aliquoted or otherwise divided into wells. The samples are then incubated in an incubator. After a pre-determined time, each sample, in a sample chamber, is moved into a detection configuration with the detection apparatus. This may involve placing the sample in a cuvette into the sample chamber. This may involve sequentially moving a plurality of sample chambers into the detection configuration. More than one measurement for each sample may be performed and stored to establish growth curves, for example, those shown in FIGS. 6, 7, 8 and 10.
FIG. 10 is a plot of bacterial growth as a function of time in urine samples in the presence of different types of antibiotics. The urine samples contain a significant amount of Klebsiella resistant to meropenem and susceptible to penicillin, amoxicillin, gentamicin and ciprofloxacin. The control line is the upper most line.
The second upper most line correspond to results for a urine sample treated with meropenem. The second upper most line overlaps in part with the control line. The urine sample is thus shown to be resistant to meropenem. The other lines correspond to results for urine samples treated with ciprofloxacin, gentamicin, penicillin and amoxicillin.

[1] = system: bacterial growth of samples; test: Detection apparatus, bacterial growth with antibiotics at EUCAST breakpoint, FIG. 8(a) / Table 1; parameters: key to S or R result (sensitive / resistant): S: sensitive; R: resistant; conditions: Table 1, FIG. 8(a); antibiotic at EUCAST breakpoint concentration
Method: (§1) FIG. 8(a) and FIG. 8(b) are plots showing bacterial growth of samples as a function of time in the presence of different types of antibiotics. FIGS. 8(a) and 8(b) illustrate break points for different types of antibiotics. Measurements derived using the data shown in FIGS. 8(a) and 8(b) are shown in Table 1 and Table 2, respectively.
(§2) At a fourth step, a test process is performed that includes incubation and obtaining readings. Tests will typically run for a maximum of 30 minutes.
(§3) At a fifth step, an analysis process is performed based on the readings obtained from the test process. The analysis process includes determining if the strain is sensitive or resistant to the or an antibiotic or other agent in the sample chamber based on the obtained readings. Determining whether a sample is sensitive or resistant to an antibiotic or other agent may be referred to as obtaining an S result or an R result. Determining if a sample is a S result or an R result may include comparing a reading to threshold criteria.
(§4) As a first example, if the sample fails to show a 50% inhibition, the sample will be declared R after 30 minutes. In some embodiments, the analysis process includes providing sensitivity results.

[2] = system: bacterial growth of samples; test: Detection apparatus, bacterial growth with antibiotics at EUCAST breakpoint, FIG. 8(b) / Table 2; parameters: key to S or R result (sensitive / resistant): S: sensitive; R: resistant; conditions: Table 2, FIG. 8(b); antibiotic at EUCAST breakpoint concentration
Method: as §1, §2, §3, §4

[3] = system: bacterial growth of samples; test: Reference susceptibility test (Vitek 2), sample of FIG. 8(b) / Table 2; conditions: Table 2, sample of FIG. 8(b)
Source text: as §1

[4] = system: bacterial growth of samples; test: Reference susceptibility test (Vitek 2), sample of FIG. 8(a) / Table 1; conditions: Table 1, sample of FIG. 8(a)
Source text: as §1

E. coli = test: Bacterial growth over time by light scattering at different antibiotic concentrations (FIGS. 6 and 7); conditions: from plot of detector output vs time
Source text: Any suitable detection and analysis system may be used with the embodiments of FIGS. 1 to 5. In some embodiments a detection and analysis system as described in WO 2016/128747 is used. The content of WO 2016/128747 is hereby incorporated by reference. In some embodiments a light source in the form of a 635 nm wavelength laser is used (any light in the wavelength range 620-750 nm is used in some other embodiments). The laser in this embodiment is connected to a signal generator that is adapted to control a modulation frequency and phase of the laser output. The photodetector is connected to a digital phase sensitive detector (PSD). An input of an amplifier is connected to the signal generator. An output of the amplifier is connected to a digital oscilloscope 66. […]
The signal generator is arranged to modulate the output frequency of the laser source. […] The detected signal is filtered by the PSD. The PSD filters the detected signal from the photodetector. The PSD synchronizes the detected signal with the modulation applied to the light source to provide a dampening system that eliminates unwanted noise, for example, background electrical or luminous noise. The filtered signal is sent to the digital oscilloscope to be recorded. […]

Compound | susceptibility of bacteria in urine sample (Klebsiella) | S or R result (sensitive / resistant) [1] | Time To Results [1] | S or R result (sensitive / resistant) [2] | Time To Results [2] | Reference (Vitek 2 result) [3] | Reference (Vitek 2 result) [4] | mode of action (E. coli) | minimum inhibitory concentration (MIC) (E. coli)
CC1(C)S[C@@H]2[C@H](NC(=O)[C@H](N)c3ccc(O)cc3)C(=O)N2[C@H]1C(=O)O [Amoxicillin] | susceptible | (S) | 2.93 min | – | – | – | – | – | –
CC1(C)S[C@@H]2[C@H](NC(=O)[C@H](N)c3ccccc3)C(=O)N2[C@H]1C(=O)O [Ampicillin] | – | – | – | (R) | >30 min | >0.5 Mg/L | 8 Mg/L | – | –
O=C(O)c1cn(C2CC2)c2cc(N3CCNCC3)c(F)cc2c1=O [Ciprofloxacin] | susceptible | (S) | 4.4 min | (S) | 3.37 min | 0.5 Mg/L | ≤0.25 Mg/L | – | –
CC[C@H]1OC(=O)[C@H](C)[C@@H](O[C@H]2C[C@@](C)(OC)[C@@H](O)[C@H](C)O2)[C@H](C)[C@@H](O[C@@H]2O[C@H](C)C[C@H](N(C)C)[C@H]2O)[C@](C)(O)C[C@@H](C)C(=O)[C@H](C)[C@@H](O)[C@]1(C)O [Erythromycin] | – | – | – | (S) | 3.3 min | 1 Mg/L | – | – | –
C[C@@H](O)[C@H]1C(=O)N2C(C(=O)O)=C(S[C@@H]3CN[C@H](C(=O)N(C)C)C3)[C@H](C)[C@H]12 [Meropenem, meropenem] | resistant | (S) | 2.57 min | (S) | 2.2 min | – | ≤0.25 Mg/L | causes lysis and a reduction in scattering | –
COc1c(N2C[C@@H]3CCCN[C@@H]3C2)c(F)cc2c(=O)c(C(=O)O)cn(C3CC3)c12 [Moxifloxacin] | – | – | – | – | – | – | ≤0.25 Mg/L | – | –
O=C1CN(/N=C/c2ccc([N+](=O)[O-])o2)C(=O)N1 [Nitrofurantoin] | – | – | – | (S) | 3.37 min | 16 Mg/L | – | – | –
COc1cc(Cc2cnc(N)nc2N)cc(OC)c1OC [Trimethoprim] | – | (S) | 0.73 min | (S) | 7.33 min | 0.5-2 Mg/L | ≤0.5 Mg/L | – | –
CN[C@H](CC(C)C)C(=O)N[C@H]1C(=O)N[C@@H](CC(N)=O)C(=O)N[C@H]2C(=O)N[C@H]3C(=O)N[C@H](C(=O)N[C@H](C(=O)O)c4cc(O)cc(O)c4-c4cc3ccc4O)[C@H](O)c3ccc(c(Cl)c3)Oc3cc2cc(c3O[C@@H]2O[C@H](CO)[C@@H](O)[C@H](O)[C@H]2O[C@H]2C[C@](C)(N)[C@H](O)[C@H](C)O2)Oc2ccc(cc2Cl)[C@H]1O [Vancomycin] | – | – | – | (S) | 7.33 min | 1 Mg/L | – | – | –
Augmentin (co-amox) | – | (S) | 2.2 min | (R) | >30 min | ≤2 Mg/L | 2 Mg/L | – | –
gentamicin | susceptible | (S) | 0.73 min | (S) | 0.37 min | 0.5-8 Mg/L | ≤1 Mg/L | – | below 2 mg/L
penicillin | susceptible | – | – | – | – | – | – | – | –
